Results published in US20250019375A1, “BENZOTHIAZOLE DYES” (Detect, Inc., priority 2023, published 2025).

Key:
[1] = system: Neisseria gonorrhoeae (AQ10); assay: qLAMP assay, Neisseria gonorrhoeae (AQ10), time to positive (Tp); format: biochemical
Protocol: Compounds were added to the LAMP reaction mixture containing target-specific primers, dNTPs, DNA polymerase, reverse transcriptase, and the target RNA sequence. This reaction mixture was incubated at 62° C. (or the specified temperature (FIG. 4)) for at least 50 minutes and the increase in fluorescence was assessed to determine the time to positivity (Tp). Data shown in FIGS. 1A-B support that these compounds are compatible with LAMP assays at concentrations up to 16 μM.
For the Neisseria gonorrhoeae (AQ10), there is detrimental impact on Tp observed with Compound 5 at ≥8 μM where a delay in Tp is observed.
Data shown is under clean and eluted vaginal swabs (contrived conditions). Good performance is observed at ≥61° C. There is detrimental impact on performance at <60° C. (delay in Tp).

[2] = Accelerated stability of lyophilized dye, assayed by HPLC; format: physicochemical
Protocol: It was also determined that Compound 3 is stable under accelerated stability conditions from lyophilized chemistry (FIG. 5). As assayed by HPLC, Compound 3 is stable under these conditions at the 3-month time point (98.7±0.33% remaining), corresponding to 6 months stability at room temperature (15-30° C.).

[3] = system: double stranded DNA (dsDNA); assay: Absorption/emission spectra of dyes with dsDNA; format: physicochemical; details: for Stokes shift: 2 μM dye + 2 μM hairpin DNA; for Stokes shift / λem: pH 8.8 isoamplification buffer; for λabs: absorption recorded at 25±2° C.; for λem: fluorescence at 62±2° C.
Protocol: FIG. 6A-F show absorption/emission spectra of dyes with double stranded DNA (dsDNA).
Fluorescence readings (FIGS. 6A-F) were performed using 10 mm path length, 700 μL quartz cuvettes on Horiba Fluorolog-Q fluorometer instrument. All measurements were taken at elevated temperature (62±2° C.) in pH 8.8 isoamplification buffer containing 20 mM Tris-HCl. For each measurement, 2 μM of dye was combined with 2 μM of hairpin DNA. Absorption spectra were recorded at ambient temperature (25±2° C.) on a DeNovix DS-11 spectrophotometer instrument. Normalized spectra are shown for clarity. The benzothiazole dye compounds have large Stokes shift >40 nm, which allows a substantial portion of the output fluorescence to pass through the filter covering the photodiode detection component of the device.

[4] = clean and eluted vaginal swabs (contrived conditions)

| SMILES | temperature of good performance [1, 4] | temperature with detrimental impact on performance (delay in Tp) [1, 4] | % remaining ([2]; 40° C., lyophilized, 3-month time point, HPLC) | corresponding stability at room temperature ([2]; room temperature (15-30° C.), extrapolated from 3 months accelerated conditions) | Stokes shift [3] | λabs [3] | λem [3] | concentration with detrimental impact on Tp (delay in Tp) ([1]; Neisseria gonorrhoeae (AQ10) LAMP, 62° C.) |
| --- | --- | --- | --- | --- | --- | --- | --- | --- |
| COc1ccc2c(c1)S/C(=C\c1cc[n+](C)c(N3CCOCC3)c1)N2C [Compound 3] | ≥ 61 °C | < 60 °C | 98.7±0.33% | 6 months | 50 nm | 448 nm | 498 nm | – |
| COc1ccc2c(c1)S/C(=C\c1cc[n+](C)c(-c3ccccc3)c1)N2C [Compound 5] | – | – | – | – | – | – | – | ≥ 8 µM |
| CN1/C(=C/c2cc[n+](C)c(N3CCOCC3)c2)Sc2ccccc21 [Compound 8] | – | – | – | – | 38 nm | 442 nm | 480 nm | – |
| CN(C)c1cc(/C=C2\Sc3ccccc3N2C)cc[n+]1C [Compound 10] | – | – | – | – | 38 nm | 443 nm | 481 nm | – |
| COc1ccc2c(c1)S/C(=C\c1cc[n+](C)c3ccccc13)N2C [Compound 11] | – | – | – | – | 43 nm | 510 nm | 553 nm | – |
